This passage reports inhibition and IC50 results from ChEMBL document CHEMBL5154692, “Synthesis of novel thiazolyl hydrazone derivatives as potent dual monoamine oxidase-aromatase inhibitors” (Eur J Med Chem, 2022).

The term inhibition denotes the relative decrease from the control value, in per cent. The IC50 is the midpoint of a concentration-inhibition curve.

Assay [1] addresses T1, Amine oxidase [flavin-containing] A (Homo sapiens, UniProt P21397).
T1 sequence (P21397 whole entry): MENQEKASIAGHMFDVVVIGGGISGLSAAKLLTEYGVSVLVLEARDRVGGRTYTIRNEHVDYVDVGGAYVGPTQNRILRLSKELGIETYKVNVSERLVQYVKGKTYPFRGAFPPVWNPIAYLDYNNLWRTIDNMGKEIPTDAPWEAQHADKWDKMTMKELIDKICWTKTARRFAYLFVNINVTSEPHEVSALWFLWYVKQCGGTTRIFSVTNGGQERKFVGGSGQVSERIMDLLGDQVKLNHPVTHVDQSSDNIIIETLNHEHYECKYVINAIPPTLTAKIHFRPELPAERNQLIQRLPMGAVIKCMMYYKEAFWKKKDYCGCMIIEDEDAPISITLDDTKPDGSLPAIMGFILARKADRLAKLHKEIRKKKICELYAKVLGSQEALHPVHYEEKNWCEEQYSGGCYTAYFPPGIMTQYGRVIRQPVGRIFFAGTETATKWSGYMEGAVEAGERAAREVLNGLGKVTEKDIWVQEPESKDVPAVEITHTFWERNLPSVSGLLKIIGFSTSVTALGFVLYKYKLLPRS
The assay can be described thus: Inhibition of MAO-A (unknown origin) at 1 mM relative to control.

For assay [2], the target named is T1, Amine oxidase [flavin-containing] A. The assay can be described thus: Inhibition of MAO-A (unknown origin) at 10 mM relative to control. Further details: dose or concentration left out as unconfirmed.
The target is the same in assay [3]. In words: Inhibition of MAO-A (unknown origin).
Assay [4] has as its target T2, Amine oxidase [flavin-containing] B (Homo sapiens, UniProt P27338).
T2 sequence (P27338 whole entry): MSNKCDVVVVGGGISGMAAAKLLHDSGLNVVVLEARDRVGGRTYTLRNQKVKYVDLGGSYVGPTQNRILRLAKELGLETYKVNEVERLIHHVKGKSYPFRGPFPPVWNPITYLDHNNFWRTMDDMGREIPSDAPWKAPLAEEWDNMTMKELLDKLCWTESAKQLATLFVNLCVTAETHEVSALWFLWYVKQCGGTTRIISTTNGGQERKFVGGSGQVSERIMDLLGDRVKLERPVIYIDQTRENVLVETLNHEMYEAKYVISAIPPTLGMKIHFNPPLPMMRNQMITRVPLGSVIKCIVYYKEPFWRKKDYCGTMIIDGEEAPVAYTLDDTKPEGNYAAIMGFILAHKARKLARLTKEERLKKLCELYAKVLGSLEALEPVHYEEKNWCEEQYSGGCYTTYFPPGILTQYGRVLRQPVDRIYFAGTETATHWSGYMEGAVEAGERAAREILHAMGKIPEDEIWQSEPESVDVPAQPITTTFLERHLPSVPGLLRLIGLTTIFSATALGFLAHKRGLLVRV
In words: Inhibition of MAO-B (unknown origin).

Assay [5] concerns the target T3, Aromatase (Homo sapiens, UniProt P11511).
T3 sequence (P11511 whole entry): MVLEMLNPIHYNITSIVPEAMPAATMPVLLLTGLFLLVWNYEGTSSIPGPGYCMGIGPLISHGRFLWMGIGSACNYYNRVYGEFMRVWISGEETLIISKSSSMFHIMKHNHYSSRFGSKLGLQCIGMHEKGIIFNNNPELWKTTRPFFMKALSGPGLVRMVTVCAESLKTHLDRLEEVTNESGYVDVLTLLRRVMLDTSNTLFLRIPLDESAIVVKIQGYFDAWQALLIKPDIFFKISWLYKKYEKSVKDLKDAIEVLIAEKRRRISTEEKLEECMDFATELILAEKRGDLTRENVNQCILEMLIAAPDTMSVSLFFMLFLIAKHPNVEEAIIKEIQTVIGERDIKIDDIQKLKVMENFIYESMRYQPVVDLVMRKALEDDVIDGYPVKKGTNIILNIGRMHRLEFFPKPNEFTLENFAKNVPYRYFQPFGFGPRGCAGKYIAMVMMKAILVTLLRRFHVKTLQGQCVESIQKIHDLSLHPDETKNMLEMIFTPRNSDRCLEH
The assay can be described thus: Inhibition of aromatase (unknown origin).

Consider `COc1ccc2cc(/C=N/Nc3nc(-c4ccccc4)cs3)ccc2c1`, for which at 1000 µM the inhibition in assay [1] was 51.4%. The compound also came in with an inhibition in assay [2] of 26.6%.
In assay [1], `COc1ccc2cc(/C=N/Nc3nc(-c4ccc(S(C)(=O)=O)cc4)cs3)ccc2c1` gave an inhibition at 1000 µM of 53.5%. The inhibition in assay [2] was determined as 37%.
For `COc1ccc2cc(/C=N/Nc3nc(-c4ccc(C)cc4)cs3)ccc2c1` the same measures were 49.8% and 31.1%.
For `COc1ccc2cc(/C=N/Nc3nc(-c4ccccc4)c(C)s3)ccc2c1`, in assay [1], the inhibition at 1000 µM came to 90.9%. In assay [2], the inhibition worked out at 82.3%. The IC50 in assay [3] worked out at 0.072 µM.
As to `COc1ccc2cc(/C=N/Nc3nc(-c4ccc(F)cc4)cs3)ccc2c1`, in assay [1], the inhibition at 1000 µM was found to be 52.2%. The compound further gave an inhibition in assay [2] of 35.5%.
For `COc1ccc2cc(/C=N/Nc3nc(-c4ccc(C#N)cc4)cs3)ccc2c1` the same measures were 58.7% and 30.4%.
For `COc1ccc2cc(/C=N/Nc3nc(-c4ccc5ccccc5c4)cs3)ccc2c1` the same measures were 55.9% and 35.7%.
In the case of `COc1ccc2cc(/C=N/Nc3nc(-c4cccc([N+](=O)[O-])c4)cs3)ccc2c1`, in assay [1], at 1000 µM the inhibition was 90.5%. Also, the inhibition in assay [2] is 84.1%. The IC50 in assay [3] worked out at 0.068 µM; in assay [4] it was 0.046 µM.
Take `CCOC(=O)Cc1csc(N/N=C/c2ccc3cc(OC)ccc3c2)n1`: the inhibition at 1000 µM in assay [1] was determined as 60.2%. For the same compound, the inhibition in assay [2] stood at 30.2%. Moreover, the IC50 in assay [4] is 0.039 µM; in assay [5], 0.031 µM.
Consider `COc1ccc2cc(/C=N/Nc3nc(-c4ccc(Cl)c(Cl)c4)cs3)ccc2c1`, for which testing at 1000 µM in assay [1] gave an inhibition of 47.7%. In assay [2], this compound registered an inhibition of 32.5%.
Turning to `COc1ccc(-c2csc(N/N=C/c3ccc4cc(OC)ccc4c3)n2)cc1`, the inhibition at 1000 µM in assay [1] is 50%. For the same compound, the inhibition in assay [2] was 28.1%.
For the compound `COc1ccc2cc(/C=N/Nc3nc(-c4cccc(Cl)c4)cs3)ccc2c1`, in assay [1], at 1000 µM the inhibition was 48.4%. Also, in assay [2], the inhibition was 39.9%.
For `COc1ccc2cc(/C=N/NC3=NC(=O)CS3)ccc2c1`, the inhibition at 1000 µM in assay [1] turned out to be 55.8%. Besides, the inhibition in assay [2] worked out at 33.9%. Half-maximal inhibition in assay [5] (IC50) was put at 0.042 µM.
With `CCOC(=O)c1sc(N/N=C/c2ccc3cc(OC)ccc3c2)nc1C`, in assay [1], the inhibition at 1000 µM was 58.2%. The inhibition in assay [2] came to 29.3%.
On to `COc1ccc2cc(/C=N/Nc3nc(-c4ccc([N+](=O)[O-])cc4)cs3)ccc2c1`, for which 1000 µM produced 57.8% inhibition in assay [1]. Also, the inhibition in assay [2] was found to be 33.4%. In addition, half-maximal inhibition in assay [4] (IC50) was put at 0.082 µM.
With `COc1cccc(-c2csc(N/N=C/c3ccc4cc(OC)ccc4c3)n2)c1`, the inhibition at 1000 µM in assay [1] is 56.7%. This compound also showed an inhibition in assay [2] of 21.9%.
`COc1ccc2cc(/C=N/Nc3nc(-c4ccc(-c5ccccc5)cc4)cs3)ccc2c1` displayed an inhibition at 1000 µM in assay [1] of 59.2%. In assay [2], this compound returned an inhibition of 34.2%.
In assay [1], `COc1ccc2cc(/C=N/Nc3nc(C)c(C)s3)ccc2c1` had an inhibition at 1000 µM of 54.4%. Besides, the inhibition in assay [2] was 30.9%.
Turning to `COc1ccc2cc(/C=N/Nc3nc(-c4cc5ccccc5o4)cs3)ccc2c1`, in assay [1], the inhibition at 1000 µM came out at 58.4%. The inhibition in assay [2] was determined as 27.7%.
For the compound `COc1ccc2cc(/C=N/Nc3nc(-c4ccc(Cl)cc4)cs3)ccc2c1`, in assay [1], the inhibition at 1000 µM is 48.4%. This compound registered an inhibition in assay [2] of 28.8%.
For `COc1ccc2cc(/C=N/Nc3nc(-c4cccc(F)c4)cs3)ccc2c1` the same measures were 59.4% and 32.1%.
